The values below are quoted from earlier work in patent US7074826B2, “R-NSAID esters and their use” (Encore Pharmaceuticals, Inc., priority 2002, dated 2006).

In one data set the test system is Alzheimer's dementia. Conditions: limited clinical trial.

Turning to `CC(C)Cc1ccc(C(C)C(=O)O)cc1` (racemic) [racemic ibuprofen, ibuprofen], the “adverse effects of high doses” value in the data set on cystic fibrosis patients (high doses employed in the Konstan study) is “conjunctivitis and epistaxis”. Moreover, the “progression of the lung disease” value in the data set on cystic fibrosis patients (high doses, cystic fibrosis patients, four-year period) is given as “slows progression of the lung disease”.

For the compound `O=c1[nH]cc(F)c(=O)[nH]1` [5-fluorouracil], the “survival among colon cancer patients” value in the data set on colon cancer patients (administered alone) is “No improvement in survival”.

`COc1ccc2c(c1)c(CC(=O)O)c(C)n2C(=O)c1ccc(Cl)cc1` [indomethacin]: in the data set on Alzheimer's dementia, the “progression of Alzheimer's dementia” value is listed as “retardation in the progression of Alzheimer's dementia”.

Regarding `c1ccc([C@H]2CN3CCSC3=N2)cc1` [levamisole], the “survival rate among colon cancer patients” value in the data set with colon cancer patients (added to 5-fluorouracil) is on record as “improved survival rate”.
